# Assay results: patent publication US11339419B2, “Scavenger protein(s) for improved preservation of analyte detection sensor(s) and method(s) of use thereof” (Siemens Healthcare Diagnostics Inc., priority 2017, dated 2022)
# Where “and” joins values, the source holds several entries; their conditions need not be identical. Equal values may be shown once.
# Legend:
# Assay type in all cases: biochemical
# [1] = tested on: sarcosine oxidase (BBI Solutions); assay: BBI Solutions Sarcosine Oxidase Enzyme Absorbance with BSA and MIT; settings: 0 mg/mL BSA; for Sarcosine Oxidase Enzyme Absorbance, MEAN of 1-5 / Sarcosine Oxidase Enzyme Absorbance, solutions 1-5: 37° C.
# Description: (§1) Tables 1-4 depict aqueous solutions comprising varying concentrations of BSA (at concentrations of 0 mg/mL, 5 mg/mL, 25 mg/mL, and 50 mg/mL), varying concentrations of MIT (at concentrations of 50 parts per million and 100 parts per million) or Proclin™ 300 (at concentrations of 0.7% and 1.4%) biocides over a particular time period (measurements were taken at days 0, 4, and 14 after exposure of the enzyme(s) to the aqueous solutions) and the associated enzyme absorbance measurements for sarcosine oxidase (commercially offered for sale by BBI Solutions and Toyobo). Absorbance measurements of the sarcosine oxidase enzyme(s) were taken via spectrophotometer for each aqueous solution (represented as columns 1-5 in Tables 1-4—column 6 is a blank), the absorbance being directly proportional to the enzyme activity being measured-which for Tables 1-4 is sarcosine oxidase enzyme activity. Accordingly, the higher the absorbance measurement, the higher the enzyme activity of sarcosine oxidase. Columns 7-11 represent five replicate readings in which the aqueous solution only contains BSA (i.e., there is no biocide(s) present in the aqueous solution). In addition, the mean values, standard deviations, and coefficients of variation are also presented for the enzyme activity/absorbance of each aqueous solution. All measurements were taken at 37° C.
# As depicted below in Table 1, sarcosine oxidase (commercially offered for sale by BBI Solutions) enzyme activity is measured against various concentrations of MIT (biocide) and BSA (scavenger protein) over a period of 14 days (with absorbance measurements taken at 0, 4, and 14 days) for five different aqueous solutions (represented as columns 1-5—column 6 is a blank).
# [2] = tested on: creatininase (BBI Solutions); assay: BBI Solutions Creatininase Enzyme Absorbance with BSA and MIT; settings: 0 mg/mL BSA
# Description: Table 5-8 depict aqueous solutions comprising varying concentrations of BSA (at concentrations of 0 mg/mL, 5 mg/mL, 25 mg/mL, and 50 mg/mL), varying concentrations of MIT (at concentrations of 50 parts per million and 100 parts per million) or Proclin™ 300 (at concentrations of 0.7% and 1.4%) biocide over a particular time period (measurements were taken at days 0, 4, and 14 after exposure of the enzyme(s) to the particular aqueous solutions) and the associated enzyme absorbance measurements for creatininase (commercially offered for sale by BBI Solutions and Toyobo). Absorbance measurements of the creatininase enzyme(s) were taken via spectrophotometer for each aqueous solution (represented as columns 1-5 in Tables 5-8—column 6 is a blank), the absorbance being directly proportional to the enzyme activity being measured-which for Tables 5-8 is creatininase enzyme activity. Accordingly, the higher the absorbance measurement, the higher the enzyme activity of creatininase. Columns 7-11 represent five replicate readings in which the solution only contains BSA (i.e., there is no biocide(s) present in the solution). In addition, the mean values, standard deviations, and coefficients of variation are all presented for the enzyme activity/absorbance of each aqueous solution. All measurements were taken at 37° C.
# As depicted in Table 5, creatininase (commercially offered for sale by BBI Solutions) enzyme activity is measured against various concentrations of MIT (biocide) and BSA (scavenger protein) over a period of 14 days (with absorbance measurement taken at 0, 4, and 14 days) for five different aqueous solutions (represented as columns 1-5—column 6 is a blank).
# creatininase (Toyobo) = assay: Toyobo Creatininase Enzyme Absorbance with BSA and MIT; settings: 0 mg/mL BSA
# Excerpt: Absorbance measurements of the creatininase enzyme(s) were taken via spectrophotometer for each aqueous solution (represented as columns 1-5 in Tables 5-8—column 6 is a blank), the absorbance being directly proportional to the enzyme activity being measured-which for Tables 5-8 is creatininase enzyme activity. Accordingly, the higher the absorbance measurement, the higher the enzyme activity of creatininase. Columns 7-11 represent five replicate readings in which the solution only contains BSA (i.e., there is no biocide(s) present in the solution). In addition, the mean values, standard deviations, and coefficients of variation are all presented for the enzyme activity/absorbance of each aqueous solution. All measurements were taken at 37° C.
# As depicted in Table 6, creatininase (commercially offered for sale by Toyobo) enzyme activity is measured against various concentrations of MIT (biocide) and BSA (scavenger protein) over a period of 14 days (with absorbance measurement taken at 0, 4, and 14 days) for five different aqueous solutions (represented as columns 1-5—column 6 is a blank).
# [3] = tested on: sarcosine oxidase (Toyobo); assay: Toyobo Sarcosine Oxidase Enzyme Absorbance with BSA and MIT; settings: 0 mg/mL BSA; for Sarcosine Oxidase Enzyme Absorbance, MEAN of 1-5 / Sarcosine Oxidase Enzyme Absorbance, solutions 1-5: 37° C.
# Description: as §1
# As depicted below in Table 2, sarcosine oxidase (commercially offered for sale by Toyobo) enzyme activity is measured against various concentrations of MIT (biocide) and BSA (scavenger protein) over a period of 14 days (with absorbance measurements taken at 0, 4, and 14 days) for five different aqueous solutions (represented as columns 1-5-column 6 is a blank).
smiles,measurement,setting,value
"Cn1sccc1=O [MIT, methylisothiazolinone, reference compound]",% Bias,"[1]; Day 0, 50 ppm MIT vs no MIT",3.8%
same,"Sarcosine Oxidase Enzyme Absorbance, MEAN of 1-5","[1]; Day 0, 50 ppm MIT",1.43
same,"Sarcosine Oxidase Enzyme Absorbance, solutions 1-5","[1]; Day 0, 50 ppm MIT",1.463 and 1.459 and 1.507 and 1.474 and 1.477
same,% Bias,"[1]; Day 0, 100 ppm MIT vs no MIT",1.3%
same,"Sarcosine Oxidase Enzyme Absorbance, MEAN of 1-5","[1]; Day 0, 100 ppm MIT",1.39
same,"Sarcosine Oxidase Enzyme Absorbance, solutions 1-5","[1]; Day 0, 100 ppm MIT",1.446 and 1.428 and 1.422 and 1.427 and 1.423
same,% Bias,"[1]; Day 4, 50 ppm MIT vs no MIT",1.5%
same,"Sarcosine Oxidase Enzyme Absorbance, MEAN of 1-5","[1]; Day 4, 50 ppm MIT",1.35
same,"Sarcosine Oxidase Enzyme Absorbance, solutions 1-5","[1]; Day 4, 50 ppm MIT",1.388 and 1.397 and 1.401 and 1.346 and 1.368
same,% Bias,"[1]; Day 4, 100 ppm MIT vs no MIT",2.0%
same,"Sarcosine Oxidase Enzyme Absorbance, MEAN of 1-5","[1]; Day 4, 100 ppm MIT",1.35
same,"Sarcosine Oxidase Enzyme Absorbance, solutions 1-5","[1]; Day 4, 100 ppm MIT",1.38 and 1.379 and 1.384 and 1.353
same,% Bias,"[1]; Day 14, 50 ppm MIT vs no MIT",−8.8%
same,"Sarcosine Oxidase Enzyme Absorbance, MEAN of 1-5","[1]; Day 14, 50 ppm MIT",0.24
same,"Sarcosine Oxidase Enzyme Absorbance, solutions 1-5","[1]; Day 14, 50 ppm MIT",0.272 and 0.267 and 0.265 and 0.283 and 0.286
same,% Bias,"[1]; Day 14, 100 ppm MIT vs no MIT",−34.1%
same,"Sarcosine Oxidase Enzyme Absorbance, MEAN of 1-5","[1]; Day 14, 100 ppm MIT",0.18
same,"Sarcosine Oxidase Enzyme Absorbance, solutions 1-5","[1]; Day 14, 100 ppm MIT",0.218 and 0.215 and 0.21 and 0.214 and 0.219
same,% Bias,"[2]; Day 0, 50 ppm MIT vs no MIT",4.1%
same,Creatininase Enzyme Absorbance,"[2]; Day 0, 50 ppm MIT",0.663 and 0.662 and 0.668 and 0.62 and 0.649
same,MEAN,"[2]; Day 0, 50 ppm MIT",0.45
same,% Bias,"[2]; Day 0, 100 ppm MIT vs no MIT",0.7%
same,Creatininase Enzyme Absorbance,"[2]; Day 0, 100 ppm MIT",0.765 and 0.721 and 0.731 and 0.712 and 0.723
same,MEAN,"[2]; Day 0, 100 ppm MIT",0.53
same,% Bias,"[2]; Day 4, 50 ppm MIT vs no MIT",3.3%
same,Creatininase Enzyme Absorbance,"[2]; Day 4, 50 ppm MIT",0.654 and 0.633 and 0.52 and 0.638
same,MEAN,"[2]; Day 4, 50 ppm MIT",0.41
same,% Bias,"[2]; Day 4, 100 ppm MIT vs no MIT",−2.3%
same,Creatininase Enzyme Absorbance,"[2]; Day 4, 100 ppm MIT",0.616 and 0.604 and 0.597 and 0.523
same,MEAN,"[2]; Day 4, 100 ppm MIT",0.38
same,% Bias,"[2]; Day 14, 50 ppm MIT vs no MIT",−6.5%
same,Creatininase Enzyme Absorbance,"[2]; Day 14, 50 ppm MIT",0.732 and 0.689 and 0.701 and 0.686 and 0.725
same,MEAN,"[2]; Day 14, 50 ppm MIT",0.44
same,% Bias,"[2]; Day 14, 100 ppm MIT vs no MIT",7.0%
same,Creatininase Enzyme Absorbance,"[2]; Day 14, 100 ppm MIT",0.755 and 0.699 and 0.714 and 0.707 and 0.716
same,MEAN,"[2]; Day 14, 100 ppm MIT",0.45
same,% Bias,"creatininase (Toyobo); Day 0, 50 ppm MIT vs no MIT",10.4%
same,Creatininase Enzyme Absorbance,"creatininase (Toyobo); Day 0, 50 ppm MIT",0.846 and 0.775 and 0.735 and 0.721 and 0.713
same,MEAN,"creatininase (Toyobo); Day 0, 50 ppm MIT",0.56
same,% Bias,"creatininase (Toyobo); Day 0, 100 ppm MIT vs no MIT",3.8%
same,Creatininase Enzyme Absorbance,"creatininase (Toyobo); Day 0, 100 ppm MIT",0.937 and 0.871 and 0.866 and 0.827 and 0.836
same,MEAN,"creatininase (Toyobo); Day 0, 100 ppm MIT",0.67
same,% Bias,"creatininase (Toyobo); Day 4, 50 ppm MIT vs no MIT",12.2%
same,Creatininase Enzyme Absorbance,"creatininase (Toyobo); Day 4, 50 ppm MIT",0.777 and 0.754 and 0.767 and 0.743 and 0.77
same,MEAN,"creatininase (Toyobo); Day 4, 50 ppm MIT",0.55
same,% Bias,"creatininase (Toyobo); Day 4, 100 ppm MIT vs no MIT",9.8%
same,Creatininase Enzyme Absorbance,"creatininase (Toyobo); Day 4, 100 ppm MIT",0.745 and 0.768 and 0.763 and 0.748 and 0.792
same,MEAN,"creatininase (Toyobo); Day 4, 100 ppm MIT",0.55
same,% Bias,"creatininase (Toyobo); Day 14, 50 ppm MIT vs no MIT",9.3%
same,Creatininase Enzyme Absorbance,"creatininase (Toyobo); Day 14, 50 ppm MIT",0.828 and 0.801 and 0.702 and 0.794 and 0.79
same,MEAN,"creatininase (Toyobo); Day 14, 50 ppm MIT",0.55
same,% Bias,"creatininase (Toyobo); Day 14, 100 ppm MIT vs no MIT",5.1%
same,Creatininase Enzyme Absorbance,"creatininase (Toyobo); Day 14, 100 ppm MIT",0.794 and 0.774 and 0.784 and 0.73 and 0.78
same,MEAN,"creatininase (Toyobo); Day 14, 100 ppm MIT",0.54
same,% Bias,"[3]; Day 0, 50 ppm MIT vs no MIT",0.8%
same,"Sarcosine Oxidase Enzyme Absorbance, MEAN of 1-5","[3]; Day 0, 50 ppm MIT",1.42
same,"Sarcosine Oxidase Enzyme Absorbance, solutions 1-5","[3]; Day 0, 50 ppm MIT",1.463 and 1.462 and 1.447 and 1.446
same,% Bias,"[3]; Day 0, 100 ppm MIT vs no MIT",2.6%
same,"Sarcosine Oxidase Enzyme Absorbance, MEAN of 1-5","[3]; Day 0, 100 ppm MIT",1.44
same,"Sarcosine Oxidase Enzyme Absorbance, solutions 1-5","[3]; Day 0, 100 ppm MIT",1.491 and 1.45 and 1.5 and 1.478 and 1.464
same,% Bias,"[3]; Day 4, 50 ppm MIT vs no MIT",101.5%
same,"Sarcosine Oxidase Enzyme Absorbance, MEAN of 1-5","[3]; Day 4, 50 ppm MIT",0.25
same,"Sarcosine Oxidase Enzyme Absorbance, solutions 1-5","[3]; Day 4, 50 ppm MIT",0.277 and 0.275 and 0.272 and 0.283 and 0.282
same,% Bias,"[3]; Day 4, 100 ppm MIT vs no MIT",115.9%
same,"Sarcosine Oxidase Enzyme Absorbance, MEAN of 1-5","[3]; Day 4, 100 ppm MIT",0.27
same,"Sarcosine Oxidase Enzyme Absorbance, solutions 1-5","[3]; Day 4, 100 ppm MIT",0.302 and 0.304 and 0.298 and 0.317
same,% Bias,"[3]; Day 14, 50 ppm MIT vs no MIT",7.4%
same,"Sarcosine Oxidase Enzyme Absorbance, MEAN of 1-5","[3]; Day 14, 50 ppm MIT",0.11
same,"Sarcosine Oxidase Enzyme Absorbance, solutions 1-5","[3]; Day 14, 50 ppm MIT",0.154 and 0.153 and 0.151 and 0.159 and 0.16
same,% Bias,"[3]; Day 14, 100 ppm MIT vs no MIT",8.8%
same,"Sarcosine Oxidase Enzyme Absorbance, MEAN of 1-5","[3]; Day 14, 100 ppm MIT",0.13
same,"Sarcosine Oxidase Enzyme Absorbance, solutions 1-5","[3]; Day 14, 100 ppm MIT",0.163 and 0.176 and 0.168 and 0.172
